According to patent US20040242660A1, “Substituted oxazolidinones for combinational therapy” (priority 2001, published 2004):

Target: human factor Xa (FXa) (Homo sapiens, UniProt P00742)
Assay: Measurement of factor Xa inhibition (chromogenic substrate)
Assay type: biochemical
Conditions: not given
Procedure: a.1) Measurement of Factor Xa Inhibition
In this case, factor Xa eliminates p-nitroaniline from the chromogenic substrate.
The test substances were dissolved in various concentrations in DMSO and incubated with human FXa (0.5 nmol/l dissolved in 50 mmol/l tris buffer [C,C,C-tris(hydroxymethyl)-aminomethane], 150 mmol/l NaCl, 0.1% BSA (bovine serum albumine), pH=8,3) at 25° C. for 10 minutes. Pure DMSO serves as control.

Chain of human factor Xa (FXa) (P00742 235-488 limits assumed): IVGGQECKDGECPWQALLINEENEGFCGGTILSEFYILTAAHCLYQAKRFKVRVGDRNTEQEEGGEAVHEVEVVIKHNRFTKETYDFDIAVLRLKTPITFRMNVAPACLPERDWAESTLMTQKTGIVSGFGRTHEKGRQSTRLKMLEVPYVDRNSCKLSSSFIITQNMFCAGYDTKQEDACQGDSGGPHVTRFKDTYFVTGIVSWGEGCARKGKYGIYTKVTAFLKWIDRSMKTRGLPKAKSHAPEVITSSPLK
Chain of human factor Xa (FXa) (P00742 41-179 partner limits assumed): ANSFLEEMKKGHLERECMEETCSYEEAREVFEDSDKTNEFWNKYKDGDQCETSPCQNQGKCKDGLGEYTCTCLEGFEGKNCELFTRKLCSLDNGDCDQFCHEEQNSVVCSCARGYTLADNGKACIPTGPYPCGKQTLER

Row | SMILES | IC50
1 | O=C(NC[C@H]1CN(c2ccc(N3CCCC3=O)c(F)c2)C(=O)O1)c1ccc(Br)s1 [Example 128] | 2 nM
2 | O=C(NCC1CN(c2ccc(C3CCCCC3)cc2)C(=O)O1)c1ccc(Cl)s1 (centres unmarked) [Example 131] | 850 nM
3 | O=C(NCC1CN(c2ccc(N3CCC3)c(F)c2)C(=O)O1)c1ccc(Cl)s1 (centres unmarked) [Example 132] | 120 nM
4 | NC1CCCN(c2ccc(N3CC(CNC(=O)c4ccc(Cl)s4)OC3=O)cc2F)C1 (centres unmarked) [Example 137] | 44 nM
5 | O=C(NCC1CN(c2ccc(-n3cccc3)cc2)C(=O)O1)c1ccc(Cl)s1 (centres unmarked) [Example 139] | 1700 nM

Next, values leading:

Row | IC50 | SMILES
6 | 13 nM | NC1CCN(c2ccc(N3CC(CNC(=O)c4ccc(Cl)s4)OC3=O)cc2F)C1 (centres unmarked) [Example 126]
7 | 0.7 nM | O=C(NC[C@H]1CN(c2ccc(N3CCOCC3=O)c(F)c2)C(=O)O1)c1ccc(Br)s1 [Example 127]
8 | 1 nM | O=C(NC[C@H]1CN(c2ccc(N3CCCCC3=O)cc2)C(=O)O1)c1ccc(Br)s1 [Example 129]
9 | 3.3 nM | O=C(NC[C@H]1CN(c2ccc(N3CCCC3=O)c(F)c2)C(=O)O1)c1ccc(Cl)s1 [Example 130]
10 | 62 nM | O=C(NCC1CN(c2ccc(N3CCC(O)C3)c(F)c2)C(=O)O1)c1ccc(Cl)s1 (centres unmarked) [Example 133]
11 | 480 nM | O=C(NCC1CN(c2ccc(N3CCCC(O)C3)c(F)c2)C(=O)O1)c1ccc(Cl)s1 (centres unmarked) [Example 134]
12 | 1100 nM | CC(C)(C)OC(=O)NC1CCCN(c2ccc(N3CC(CNC(=O)c4ccc(Cl)s4)OC3=O)cc2F)C1 (centres unmarked) [Example 135]
13 | 1200 nM | CC1(N)CCN(c2ccc(N3CC(CNC(=O)c4ccc(Cl)s4)OC3=O)cc2F)CC1 (centres unmarked) [Example 136]
14 | 420 nM | O=C(NCC1CN(c2ccc(NCCCO)cc2)C(=O)O1)c1ccc(Cl)s1 (centres unmarked) [Example 138]

Same assay, conditions: factor Xa inhibition

Row | SMILES | IC50
15 | O=C(NC[C@H]1CN(c2ccc(N3CCCC3)cc2)C(=O)O1)c1ccc(Cl)s1 [Example 18, 5-Chloro-N-({(5S)-2-oxo-3-[4-(1-pyrrolidinyl)phenyl]-1,3-oxazolidin-5-yl}methyl)-2-thiophenecarboxamide] | 40 nM
16 | O=C(NC[C@H]1CN(c2ccc(N3CCOCC3)c(Cl)c2)C(=O)O1)c1ccc(Cl)s1 [Example 37, 5-Chloro-N-{[(5S)-3-(3-chloro-4-morpholinophenyl)-2-oxo-1,3-oxazolidin-5-yl]methyl}-2-thiophenecarboxamide] | 33 nM
17 | O=C(NCC1CN(c2ccc(N3CCCC3=O)cc2)C(=O)O1)c1cccs1 (centres unmarked) [Example 41, N-({2-oxo-3-[4-(2-oxo-1-pyrrolidinyl)phenyl]-1,3-oxazolidin-5-yl}methyl)-2-thiophenecarboxamide] | 1300 nM
18 | Cc1ccc(C(=O)NCC2CN(c3ccc(N4CCCC4=O)cc3)C(=O)O2)s1 (centres unmarked) [Example 42, 5-Methyl-N-({2-oxo-3-[4-(2-oxo-1-pyrrolidinyl)phenyl]-1,3-oxazolidin-5-yl}methyl)-2-thiophenecarboxamide] | 160 nM
19 | O=C(NCC1CN(c2ccc(N3CCCC3=O)cc2)C(=O)O1)c1ccc(Br)s1 (centres unmarked) [Example 43, 5-Bromo-N-({2-oxo-3-[4-(2-oxo-1-pyrrolidinyl)phenyl]-1,3-oxazolidin-5-yl}methyl)-2-thiophenecarboxamide] | 14 nM
20 | O=C(NCC1CN(c2ccccc2)C(=O)O1)c1ccc(Cl)s1 (centres unmarked) [Example 96, 5-Chloro-N-[(2-oxo-3-phenyl-1,3-oxazolidin-5-yl)methyl]-2-thiophenecarboxamide] | 2000 nM
21 | CC(=O)N(c1ccc(N2CC(CNC(=O)c3ccc(Cl)s3)OC2=O)cc1)C1CC1 (centres unmarked) [Example 98, N-[(3-{4-[Acetyl(cyclopropyl)amino]phenyl}-2-oxo-1,3-oxazolidin-5-yl)methyl]-5-chloro-2-thiophenecarboxanmide] | 50 nM
22 | NCc1ccc(N2CC(CNC(=O)c3ccc(Cl)s3)OC2=O)cc1 (centres unmarked) [Example 148, N-({3-[4-(Aminomethyl)phenyl]-2-oxo-1,3-oxazolidin-5-yl}methyl)-5-chloro-2-thiophenecarboxamide] | 2200 nM

More lines, now with the values ahead:

Row | IC50 | SMILES
23 | 1100 nM | O=C(NC[C@H]1CN(c2ccc(N3CC[S+]([O-])CC3)c(F)c2)C(=O)O1)c1ccc(Cl)s1 [Example 14, 5-Chloro-N-({(5S)-3-[3-fluoro-4-(1-oxo-1[lambda]^4,4-thiazinan-4-yl)phenyl]-2-oxo-1,3-oxazolidin-5-yl}methyl)-2-thiophenecarboxamide]
24 | 210 nM | O=C(NC[C@H]1CN(c2ccc(N3CCS(=O)(=O)CC3)c(F)c2)C(=O)O1)c1ccc(Cl)s1 [Example 15, 5-chloro-N-({(5S)-3-[4-(1,1-dioxo-1[lambda]^6,4-thiazinan-4-yl)-3-fluorophenyl]-2-oxo-1,3-oxazolidin-5-yl}methyl)-2-thiophenecarboxamide]
25 | 270 nM | CCN(CC)c1ccc(N2C[C@H](CNC(=O)c3ccc(Cl)s3)OC2=O)cc1 [Example 19, 5-Chloro-N-({(5S)-2-oxo-3-[4-(diethylamino)phenyl]-1,3-oxazolidin-5-yl}methyl)-2-thiophenecarboxamide]
26 | 2000 nM | O=C(NC[C@H]1CN(c2ccc(S(=O)(=O)N3CCOCC3)cc2)C(=O)O1)c1ccc(Cl)s1 [Example 38, 5-Chloro-N-({(5S)-3-[4-(4-morpholinylsulfonyl)phenyl]-2-oxo-1,3-oxazolidin-5-yl}methyl)-2-thiophenecarboxamide]
27 | 840 nM | O=C(NC[C@H]1CN(c2ccc(S(=O)(=O)N3CCC3)cc2)C(=O)O1)c1ccc(Cl)s1 [Example 39, 5-Chloro-N-({(5S)-3-[4-(1-azetidinylsulfonyl)phenyl]-2-oxo-1,3-oxazolidin-5-yl}methyl)-2-thiophenecarboxamide]
28 | 90 nM | CN(C)S(=O)(=O)c1ccc(N2C[C@H](CNC(=O)c3ccc(Cl)s3)OC2=O)cc1 [Example 40, 5-Chloro-N-[((5S)-3-{4-[(dimethylamino)sulfonyl]phenyl}-2-oxo-1,3-oxazolidin-5-yl)methyl]-2-thiophenecarboxamide]
29 | 2000 nM | Nc1ccc(N2CC(CNC(=O)c3ccc(Cl)s3)OC2=O)cc1 (centres unmarked) [Example 149, N-{[3-(4-Aminophenyl)-2-oxo-1,3-oxazolidin-5-yl]methyl}-5-chloro-2-thiophenecarboxamide]
30 | 2000 nM | NCC(=O)Nc1ccc(N2CC(CNC(=O)c3ccc(Cl)s3)OC2=O)cc1 (centres unmarked) [Example 150, 5-Chloro-N-({3-[4-(glycylamino)phenyl]-2-oxo-1,3-oxazolidin-5-yl}methyl)-2-thiophenecarboxamide]
31 | 2000 nM | NCC1CN(c2ccc(N3CCCC3=O)cc2)C(=O)O1 (centres unmarked) [Example 151, 5-(Aminomethyl)-3-[4-(2-oxo-1-pyrrolidinyl)phenyl]-1,3-oxazolidin-2-one]

Same assay, conditions: table of Examples 48-58

Row | SMILES | IC50
32 | CC1Oc2cc(N3C[C@H](CNC(=O)c4ccc(Cl)s4)OC3=O)ccc2N(C)C1=O (some centres unmarked) [Example 50] | 1150 nM
33 | O=C(NC[C@H]1CN(c2ccc(N3CCCC3=O)cc2)C(=O)O1)c1ccc(Br)s1 [Example 56] | 4 nM
34 | Cc1ccc(C(=O)NC[C@H]2CN(c3ccc(N4CCCC4=O)cc3)C(=O)O2)s1 [Example 57] | 580 nM

The next lines start with the values.

Row | IC50 | SMILES
35 | 1190 nM | CN1C(=O)COc2cc(N3C[C@H](CNC(=O)c4ccc(Cl)s4)OC3=O)ccc21 [Example 51]
36 | 740 nM | O=C(NC[C@H]1CN(c2ccc3c(c2)OCc2nccn2-3)C(=O)O1)c1ccc(Cl)s1 [Example 53]
37 | 130 nM | N#Cc1cc(N2C[C@H](CNC(=O)c3ccc(Cl)s3)OC2=O)ccc1N1CCCC1 [Example 54]
38 | 40 nM | O=C(NC[C@H]1CN(c2ccc(N3CCOC3=O)cc2)C(=O)O1)c1ccc(Cl)s1 [Example 55]
